Assay results taken from patent US20150065416A1, “NOVEL DRUG COMBINATION” (FAB PHARMA SAS, priority 2013, published 2015).

What was measured:
A. baumannii RCH-69 = assay: Mouse model of A. baumannii pneumonia, Study 3: survival; type: in vivo, Acinetobacter baumannii; details: neutropenic C3H/HeN mice, q 8 h I.P. 3 days, compound (I) 200 mg/kg, meropenem 50 mg/kg, colistin 125000 Ul/kg
Procedure: The bacterial inoculum was prepared in order to obtain a suspension containing 10^8 CFU/mL of Acinetobacter baumannii in saline.
Experimentations were performed with six-week old female C3H/HeN mice (18-20 g, Breeding Centre JANVIER (Ile saint Genest Mayenne 53)) because of their particular susceptibility to Acinetobacter baumannii and the reproducibility of the results (inbreeding in the breed). Each mouse was individually marked and housed in cages containing five animals/cage under ventilated and controlled (temperature and humidity) atmosphere.
The mice were rendered transiently neutropenic by 2 intra-peritoneal (IP) injections of 150 μL of cyclophosphamide (Endoxan® 150 mg/kg) 4 (D-4) and 3 (D-3) days before the Acinetobacter baumannii inoculation (Day 0). This transient immunosuppression was sufficient to facilitate the development of the A. baumannii pneumonia while allowing the recovery of the neutrophil influx 2 (Day 2) days after inoculation in order to avoid or limit a systemic bacterial dissemination.
Mice were anesthetized by a mixture of oxygen and isoflurane. The bacterial inoculation was performed on Day 0 by intra-tracheal installation using an endotracheal catheter (50 μl of the suspension, thus 5.106 CFU). The positioning of the catheter in the trachea (instead of in the oesophagus) was checked by a “ring test”. The bacterial count in lungs was checked for all study groups by sacrificing one mouse immediately after inoculation.
Survival observations were assessed twice daily, up to 4 days post infection. The survival rates were compared with the Chi-square test or the Fisher exact test as appropriate. The survival curves were compared by the Kaplan-Meier method.
The aim of this experiment was to assess the survival rate of transiently neutropenic female C3H/HeN mice administered, 3 hours post-inoculation of A. baumannii RCH-69 via intra-tracheal route, with a compound (I) via intra-peritoneal route at 200 mg/kg 3 times daily (every 8 hours) for 3 days alone and in combination with meropenem at 50 mg/kg 3 times daily (every 8 hours) for 3 days or with colistin at 125000 UI/kg 3 times daily (every 8 hours) for 3 days. 85 mice were allocated into 6 groups as follows.
Six vials of 8 mL each containing 94.2 mg/mL of compound (I) and 47.1 mg/mL of PVP 12 PF (Kollidon 12 PF) were prepared and stored between +2° C. and +8° C. Following storage, each vial was homogenized by manual shaking and diluted by 2-fold in 13.72 mg/mL NaCl aqueous solution in order to obtain a 47.1 mg of compound (I)/mL isotonic suspension. In Groups 2, 4 and 5, mice were administered with 100 μL of the 47.1 mg/mL compound (I) suspension.

A. baumannii SAN-94040 = assay: Additional mouse model of A. baumannii pneumonia (Example 7): survival; type: in vivo, Acinetobacter baumannii
Procedure: The bacterial inoculum was prepared in order to obtain a suspension containing 10^8 CFU/mL of Acinetobacter baumannii in saline, unless indicated otherwise.
Experimentations were performed with six-week old female C3H/HeN mice (18-20 g, Harlan Laboratories) because of their particular susceptibility to Acinetobacter baumannii. Each mouse was individually marked and housed in cages containing five animals/cage under ventilated and controlled (temperature and humidity) atmosphere.
The mice were rendered transiently neutropenic by 2 intra-peritoneal (IP) injections of 150 μL of cyclophosphamide (150 mg/kg) 4 (D-4) and 3 (D-3) days before the Acinetobacter baumannii inoculation (Day 0).
Mice were infected with 50 μL the prepared bacterial suspension (inoculums depending on experiment) via intra-tracheal inoculation of mouse. In the study, three animals (Group 1) were sacrificed after inoculation to determine bacterial burden in lungs at the time of infection. Lungs were aseptically removed, weighed and homogenized in 1 mL of 0.9% NaCl. Homogenates were serially diluted and plated on TSA agar. Plates were incubated overnight at 37° C. in 5% CO2. Following incubation, colonies were counted for bacterial growth.
Animal survival was assessed every day for 7 days. Survival data were tabulated and a Probit analysis performed to determine the 50% protective dose (PD50) for each group.
The aim of this experiment was to assess the survival rate of transiently neutropenic female C3H/HeN mice administered, 3 hours post-inoculation of A. baumannii SAN-94040 via intra-tracheal route, with compound (I) via intra-peritoneal route at 200 mg/kg 3 times daily (every 8 hours) for 1 day alone and in combination with meropenem at 30 mg/kg 3 times daily (every 8 hours) for 1 day.

[1] = system: Staphylococcus aureus (MSSA, MRSA, VISA, VRSA); details: VISA and VRSA strains; cited from earlier work
[2] = system: MSSA, MRSA and VISA infections; details: murine model; cited from earlier work
S. aureus = details: healthy human volunteers, Phase I study; cited from earlier work
[3] = 24 h after RCH strain infection
[4] = 48 h after RCH strain infection
[5] = 72 h after RCH strain infection
[6] = 96 h after RCH strain infection
[7] = Example 7, 24 h after SAN-94040 infection, compound (I) 200 mg/kg, meropenem 30 mg/kg, colistin 125000 UI/kg Q8h I.P. for 1 day
[8] = Example 7, 24 h after infection, doses as E246
[9] = Example 7, 48 h after infection, doses as E246
[10] = Example 7, 72 h after infection, doses as E246
[11] = Example 7, 96 h after infection, doses as E246

| SMILES | No. of survivors (A. baumannii RCH-69; 0 h after RCH strain infection) | survivors (%) (A. baumannii RCH-69; 0 h after RCH strain infection) | No. of survivors (A. baumannii RCH-69; [3]) | survivors (%) (A. baumannii RCH-69; [3]) | No. of survivors (A. baumannii RCH-69; [4]) | No. of survivors (A. baumannii RCH-69; [5]) | No. of survivors (A. baumannii RCH-69; [6]) | No. of survivors (A. baumannii SAN-94040; [7]) | survivors (%) (A. baumannii SAN-94040; [8]) | No. of survivors (A. baumannii SAN-94040; [9]) | survivors (%) (A. baumannii SAN-94040; [9]) | No. of survivors (A. baumannii SAN-94040; [10]) | survivors (%) (A. baumannii SAN-94040; [10]) | No. of survivors (A. baumannii SAN-94040; [11]) | survivors (%) (A. baumannii SAN-94040; [11]) | survival rate (A. baumannii SAN-94040; Example 7, text, time not stated) [%] | in vitro activity [1] | in vivo activity [2] | ex vivo activity (S. aureus) |
| --- | --- | --- | --- | --- | --- | --- | --- | --- | --- | --- | --- | --- | --- | --- | --- | --- | --- | --- | --- |
| CCc1cc(O)c(Oc2ccc(C(N)=O)cc2F)cc1F [compound (I), 4-(4-ethyl-5-fluoro-2-hydroxyphenoxy)-3-fluorobenzamide] | 13 | 100 | 5 | 38 | 0 | 0 | 0 | 10 | 100 | 8 | 80 | 6 | 60 | 6 | 60 | 60 | highly active | active in vivo | ex vivo bactericidal activity |
| C[C@@H](O)[C@H]1C(=O)N2C(C(=O)O)=C(S[C@@H]3CN[C@H](C(=O)N(C)C)C3)[C@H](C)[C@H]12 [meropenem] | 14 | 100 | 14 | 100 | 0 | 0 | 0 | 10 | 100 | 10 | 100 | 10 | 100 | 10 | 100 |  |  |  |  |
